# Read-outs that look alike come from different tables or passages of the source.
# Key:
# Assay in all cases: MIC, micro-dilution broth method (CLSI)
# Assay type in all cases: cell-based
# Escherichia coli = tested on: Escherichia coli
# Klebsiella pneumoniae = tested on: Klebsiella pneumoniae
# Enterobacter cloacae = tested on: Enterobacter cloacae
molecule,measurement,setting,value
"Cc1cc(-c2nc(C(C)(C)C)[nH]c2-c2ccc3c(c2)OCCO3)ccn1 [Compound 1, 4-(2-(tert-butyl)-5-(2,3-dihydrobenzo[b][1,4]dioxin-6-yl)-1H-imidazol-4-yl)-2-methylpyridine]",MIC,"Escherichia coli; Escherichia coli, ATCC25922, E. coli ATCC 25922, read-out: MIC",8 mg/L
same,MIC,"Escherichia coli; Escherichia coli, E. coli AR-0549, read-out: MIC",16 mg/L
same,MIC,"Escherichia coli; Escherichia coli, E. coli ΔrfaC JW3596 (permeability mutant)",0.25 mg/L
same,MIC,"Escherichia coli; Escherichia coli, E. coli ΔtolC JW5503 (efflux-deficient)",0.03 mg/L
same,MIC,"Klebsiella pneumoniae; Klebsiella pneumoniae, ATCC27736, K. pneumoniae ATCC 27736, read-out: MIC",16 mg/L
same,MIC,"Klebsiella pneumoniae; Klebsiella pneumoniae, ATCCBAA1705, K. pneumoniae ATCC BAA-1705, read-out: MIC",> 128 mg/L
same,MIC,"Klebsiella pneumoniae; Klebsiella pneumoniae, K. pneumoniae AR-0040, read-out: MIC",32 mg/L
same,MIC,"Enterobacter cloacae; Enterobacter cloacae, ATCC29893, E. cloacae ATCC 29893, read-out: MIC",> 128 mg/L
same,MIC,"Enterobacter cloacae; Enterobacter cloacae, ATCCBAA2468, E. cloacae ATCC BAA-2468, read-out: MIC",32 mg/L
same,MIC,"Enterobacter cloacae; Enterobacter cloacae, E. cloacae AR-0163, read-out: MIC",64 mg/L
Colistin,MIC,Escherichia coli; E. coli AR0048,0.5 mg/L
same,MIC,Escherichia coli; E. coli AR0055,1 mg/L
same,MIC,Escherichia coli; E. coli AR0058,0.5 mg/L
same,MIC,Escherichia coli; E. coli AR0061,0.5 mg/L
same,MIC,Escherichia coli; E. coli AR0067,1 mg/L
same,MIC,Escherichia coli; E. coli AR0069,0.5 mg/L
same,MIC,Escherichia coli; E. coli AR0077,0.5 mg/L
same,MIC,Escherichia coli; E. coli AR0081,0.5 mg/L
same,MIC,Escherichia coli; E. coli AR0084,0.5 mg/L
same,MIC,Escherichia coli; E. coli AR0085,0.5 mg/L
same,MIC,Escherichia coli; E. coli AR0086,0.5 mg/L
same,MIC,Escherichia coli; E. coli AR0089,0.5 mg/L
same,MIC,Escherichia coli; E. coli AR0104,0.5 mg/L
same,MIC,Escherichia coli; E. coli AR0114,0.25 mg/L
same,MIC,Escherichia coli; E. coli AR0118,0.5 mg/L
same,MIC,Escherichia coli; E. coli AR0119,0.5 mg/L
same,MIC,Escherichia coli; E. coli AR0128,0.5 mg/L
same,MIC,Escherichia coli; E. coli AR0137,1 mg/L
same,MIC,Escherichia coli; E. coli AR0149,0.5 mg/L
same,MIC,Escherichia coli; E. coli AR0150,0.5 mg/L
same,MIC,Escherichia coli; E. coli AR0151,0.5 mg/L
same,MIC,Escherichia coli; E. coli AR0162,0.5 mg/L
same,MIC,Escherichia coli; E. coli AR0346,4 mg/L
same,MIC,Escherichia coli; E. coli AR0348,0.25 mg/L
same,MIC,Escherichia coli; E. coli AR0350,4 mg/L
same,MIC,Escherichia coli; E. coli AR0493,8 mg/L
same,MIC,Escherichia coli; E. coli AR0494,8 mg/L
same,MIC,Escherichia coli; E. coli AR0495,4 mg/L
same,MIC,Escherichia coli; E. coli AR0541,0.5 mg/L
same,MIC,Escherichia coli; E. coli AR0543,0.5 mg/L
same,MIC,Escherichia coli; E. coli AR0546,0.5 mg/L
same,MIC,Escherichia coli; E. coli AR0551,0.5 mg/L
same,MIC,Escherichia coli; E. coli AR0559,0.5 mg/L
same,MIC,Escherichia coli; E. coli AR-0349 (colistin-resistant clinical isolate),8 mg/L
same,MIC,Escherichia coli; E. coli AR-0549,0.25 mg/L
same,MIC,Escherichia coli; E. coli ATCC BAA-2340,0.25 mg/L
same,MIC,Escherichia coli; E. coli ATCC BAA-2469,0.25 mg/L
same,MIC,Escherichia coli; E. coli ATCC BAA-2471,0.25 mg/L
same,MIC,Escherichia coli; E. coli ELZ 4004,0.25 mg/L
same,MIC,Escherichia coli; E. coli ELZ 4017,0.25 mg/L
same,MIC,Escherichia coli; E. coli ELZ 4042,0.25 mg/L
same,MIC,Escherichia coli; E. coli ELZ 4072,0.25 mg/L
same,MIC,Escherichia coli; E. coli ELZ 4081,0.25 mg/L
same,MIC,Escherichia coli; E. coli ELZ 4139,0.25 mg/L
same,MIC,Escherichia coli; E. coli ELZ 4239,0.25 mg/L
same,MIC,Escherichia coli; E. coli ELZ 4277,0.25 mg/L
same,MIC,Escherichia coli; E. coli ELZ 4346,0.25 mg/L
same,MIC,Klebsiella pneumoniae; K. pneumoniae AR0034,0.5 mg/L
same,MIC,Klebsiella pneumoniae; K. pneumoniae AR0039,0.5 mg/L
same,MIC,Klebsiella pneumoniae; K. pneumoniae AR0041,0.5 mg/L
same,MIC,Klebsiella pneumoniae; K. pneumoniae AR0042,0.5 mg/L
same,MIC,Klebsiella pneumoniae; K. pneumoniae AR0043,0.5 mg/L
same,MIC,Klebsiella pneumoniae; K. pneumoniae AR0044,0.5 mg/L
same,MIC,Klebsiella pneumoniae; K. pneumoniae AR0046,4 mg/L
same,MIC,Klebsiella pneumoniae; K. pneumoniae AR0047,4 mg/L
same,MIC,Klebsiella pneumoniae; K. pneumoniae AR0049,0.5 mg/L
same,MIC,Klebsiella pneumoniae; K. pneumoniae AR0066,1 mg/L
same,MIC,Klebsiella pneumoniae; K. pneumoniae AR0068,0.5 mg/L
same,MIC,Klebsiella pneumoniae; K. pneumoniae AR0075,0.5 mg/L
same,MIC,Klebsiella pneumoniae; K. pneumoniae AR0076,0.5 mg/L
same,MIC,Klebsiella pneumoniae; K. pneumoniae AR0079,0.5 mg/L
same,MIC,Klebsiella pneumoniae; K. pneumoniae AR0080,0.5 mg/L
same,MIC,Klebsiella pneumoniae; K. pneumoniae AR0087,4 mg/L
same,MIC,Klebsiella pneumoniae; K. pneumoniae AR0098,<0.25 mg/L
same,MIC,Klebsiella pneumoniae; K. pneumoniae AR0106,4 mg/L
same,MIC,Klebsiella pneumoniae; K. pneumoniae AR0107,<0.25 mg/L
same,MIC,Klebsiella pneumoniae; K. pneumoniae AR0109,>8 mg/L
same,MIC,Klebsiella pneumoniae; K. pneumoniae AR0112,0.5 mg/L
same,MIC,Klebsiella pneumoniae; K. pneumoniae AR0113,0.5 mg/L
same,MIC,Klebsiella pneumoniae; K. pneumoniae AR0115,0.5 mg/L
same,MIC,Klebsiella pneumoniae; K. pneumoniae AR0117,1 mg/L
same,MIC,Klebsiella pneumoniae; K. pneumoniae AR0120,0.5 mg/L
same,MIC,Klebsiella pneumoniae; K. pneumoniae AR0125,>4 mg/L
same,MIC,Klebsiella pneumoniae; K. pneumoniae AR0126,0.5 mg/L
same,MIC,Klebsiella pneumoniae; K. pneumoniae AR0129,0.5 mg/L
same,MIC,Klebsiella pneumoniae; K. pneumoniae AR0135,0.5 mg/L
same,MIC,Klebsiella pneumoniae; K. pneumoniae AR0138,2 mg/L
same,MIC,Klebsiella pneumoniae; K. pneumoniae AR0139,2 mg/L
same,MIC,Klebsiella pneumoniae; K. pneumoniae AR0140,0.5 mg/L
same,MIC,Klebsiella pneumoniae; K. pneumoniae AR0141,1 mg/L
same,MIC,Klebsiella pneumoniae; K. pneumoniae AR0142,0.5 mg/L
same,MIC,Klebsiella pneumoniae; K. pneumoniae AR0143,1 mg/L
same,MIC,Klebsiella pneumoniae; K. pneumoniae AR0145,0.5 mg/L
same,MIC,Klebsiella pneumoniae; K. pneumoniae AR0146,0.5 mg/L
same,MIC,Klebsiella pneumoniae; K. pneumoniae AR0148,1 mg/L
same,MIC,Klebsiella pneumoniae; K. pneumoniae AR0152,0.5 mg/L
same,MIC,Klebsiella pneumoniae; K. pneumoniae AR0153,0.5 mg/L
same,MIC,Klebsiella pneumoniae; K. pneumoniae AR0158,0.5 mg/L
same,MIC,Klebsiella pneumoniae; K. pneumoniae AR0160,1 mg/L
same,MIC,Klebsiella pneumoniae; K. pneumoniae AR0347,<0.25 mg/L
same,MIC,Klebsiella pneumoniae; K. pneumoniae AR0542,>8 mg/L
same,MIC,Klebsiella pneumoniae; K. pneumoniae AR0548,0.5 mg/L
same,MIC,Klebsiella pneumoniae; K. pneumoniae AR0550,<0.25 mg/L
same,MIC,Klebsiella pneumoniae; K. pneumoniae AR0552,0.5 mg/L
same,MIC,Klebsiella pneumoniae; K. pneumoniae AR0553,0.5 mg/L
same,MIC,Klebsiella pneumoniae; K. pneumoniae AR0554,0.5 mg/L
same,MIC,Klebsiella pneumoniae; K. pneumoniae AR0555,0.5 mg/L
same,MIC,Klebsiella pneumoniae; K. pneumoniae AR-0040,8 mg/L
same,MIC,Enterobacter cloacae; E. cloacae AR0032,0.5 mg/L
same,MIC,Enterobacter cloacae; E. cloacae AR0038,0.5 mg/L
same,MIC,Enterobacter cloacae; E. cloacae AR0050,0.25 mg/L
same,MIC,Enterobacter cloacae; E. cloacae AR0053,0.5 mg/L
same,MIC,Enterobacter cloacae; E. cloacae AR0060,0.5 mg/L
same,MIC,Enterobacter cloacae; E. cloacae AR0065,0.5 mg/L
same,MIC,Enterobacter cloacae; E. cloacae AR0072,1 mg/L
same,MIC,Enterobacter cloacae; E. cloacae AR0073,8 mg/L
same,MIC,Enterobacter cloacae; E. cloacae AR0093,0.5 mg/L
same,MIC,Enterobacter cloacae; E. cloacae AR0132,1 mg/L
same,MIC,Enterobacter cloacae; E. cloacae AR0136,0.5 mg/L
same,MIC,Enterobacter cloacae; E. cloacae AR0154,0.5 mg/L
same,MIC,Enterobacter cloacae; E. cloacae AR0164,0.5 mg/L
same,MIC,Enterobacter cloacae; E. cloacae AR0544,0.25 mg/L
same,MIC,Enterobacter cloacae; E. cloacae AR0545,0.5 mg/L
same,MIC,Enterobacter cloacae; E. cloacae AR-0163,16 mg/L
same,MIC,Enterobacter cloacae; E. cloacae ATCC BAA-2341,0.5 mg/L
same,MIC,Enterobacter cloacae; E. cloacae ATCC BAA-2468,0.25 mg/L

# Source: patent publication US20250051300A1, “GRAM-NEGATIVE SPECIFIC ANTIBIOTICS SPARING EFFECT ON GUT MICROBIOME” (THE BOARD OF TRUSTEES OF THE UNIVERSITY OF ILLINOIS, priority 2021, published 2025)
